Source: patent US9365539B2, “Prolylcarboxypeptidase inhibitors” (Merck Sharp & Dohme Corp., priority 2010, dated 2016)

Test system: not given
Experiment: not given
Conditions: limited weight loss of about; cited from earlier work

Q: Which “weight loss, of body weight, drug compared to placebo” value (from here on “weight loss … compared to placebo”) does the source give for CCN[C@@H](C)Cc1cccc(C(F)(F)F)c1 [dexfenfluramine] here?
A: 5%-10%

Q: For CCCCCCCCCCC[C@@H](C[C@@H]1OC(=O)[C@H]1CCCCCC)OC(=O)[C@H](CC(C)C)NC=O [orlistat], which “weight loss … compared to placebo” value is on record?
A: 5%-10%

Q: For CC(C)(N)Cc1ccccc1 [phentermine], which “weight loss … compared to placebo” value is on record?
A: 5%-10%

Q: With CC(C)CC(N(C)C)C1(c2ccc(Cl)cc2)CCC1 (centres unmarked) [sibutramine] as the compound, how does the “weight loss … compared to placebo” value read?
A: 5%-10%

Test system: not given
Experiment: not given
Conditions: systemic administration to obese, leptin deficient mice; cited from earlier work

Q: For t-butyl carbamate-prolyl prolinal [BPP], which overnight food intake is on record?
A: suppression of overnight food intake

Molecular target: human PrCP (Homo sapiens (Human), UniProt P42785)
Experiment: Prolylcarboxypeptidase (PRCP) enzyme activity assay, fluorescence intensity kinetic assay
Assay type: biochemical
Conditions: recombinant human PrCP (CHO), 15 uM substrate, pH 5.5, 37° C.
Method: The potency of compounds of formula I against PrCP was determined by a fluorescence intensity kinetic assay measuring the IC50 values of PrCP inhibitor test compounds. […] The assay was run on a Perkin Elmer Envision 2103 plate reader using a 320 nm excitation filter and a 405 emission filter. The assay was performed using a Hamilton Star liquid handling workstation. The assay employed the internally quenched fluorescent substrate (1S)-1-carboxy-5-[(2,4-dinitrophenyl)amino]pentyl N-[(7-methoxy-2-oxo-2H-chromen-4-yl)acetyl]-L-alanyl-L-prolinate prepared in house.
The assay was run in a 384-well microliter plate at 37° C. with a total volume of 50 uL. Final assay concentrations were 0.13 nM human PrCP (CHO) or 0.09 nM mouse PrCP (CHO) enzyme, 15 uM substrate and varying concentrations of inhibitor in buffer containing 10 mM NaOAc, 100 mM NaCl and 19.5 ug/mL BSA at pH 5.5. The assay also contained 2% DMSO used to solubilize the substrate and inhibitor. Inhibitors were prepared in 100% DMSO and serial diluted (in 100% DMSO) to generate 11 point titration curves. Either 39 uL of human or mouse PrCP enzyme was added to the wells of the assay plate, followed by a 1 uL addition of the serially diluted inhibitor and mixed three times using a 30 uL mix volume. The reaction was initiated by the addition of 10 uL substrate and mixed three times using a 30 μL mix volume. The reactions were monitored continuously over 25 min at 37° C. to obtain initial velocities. IC50 values were calculated by comparing the resulting rates of reaction of the inhibited and control initial velocities.
The enzymes were diluted in a mixture of 10 mM NaOAc (pH 5.5)/100 mM NaCl buffer containing 25 ug/mL bovine serum albumin that had been warmed to 37° C. in a water bath. The PrCP inhibitor test compounds were plated in 100% DMSO with a highest concentration of 500 uM. There were 12 dilution points for each compound tested including a blank with DMSO only. The test compounds from the source titration plate were transferred into the assay reaction plate at a 1:50 dilution using the Hamilton Star workstation and mixed, resulting in a final concentration for the test compounds in the range of 10,000 to 0.066 nM. Likewise, two control compounds were similarly titrated and included in each assay, with final starting concentrations starting at 10,000 nM and 200 nM, respectively. The reaction was initiated by the addition of 75 uM of the (1S)-1-carboxy-5-[(2,4-dinitrophenyl)amino]pentyl N-[(7-methoxy-2-oxo-2H-chromen-4-yl)acetyl]-L-alanyl-L-prolinate substrate, which was diluted in a mixture of 10 mM NaOAc (pH 5.5)/100 mM NaCl that had been warmed to 37° C. in a water bath, dispensed using the Hamilton Star workstation and mixed. The substrate was solubilized in 100% DMSO prior to dilution into the assay. The final assay concentrations in the 50 uL reactions were 15 uM of (1S)-1-carboxy-5-[(2,4-dinitrophenyl)amino]pentyl N-[(7-methoxy-2-oxo-2H-chromen-4-yl)acetyl]-L-alanyl-L-prolinate substrate, 0.13 nM Human PrCP (CHO) or 0.09 nM Mouse PrCP (CHO), and 2% DMSO.
The resulting rates of reaction were used to determine the IC50 value for each PrCP inhibitor compound tested.

Sequence of human PrCP (P42785 46-496): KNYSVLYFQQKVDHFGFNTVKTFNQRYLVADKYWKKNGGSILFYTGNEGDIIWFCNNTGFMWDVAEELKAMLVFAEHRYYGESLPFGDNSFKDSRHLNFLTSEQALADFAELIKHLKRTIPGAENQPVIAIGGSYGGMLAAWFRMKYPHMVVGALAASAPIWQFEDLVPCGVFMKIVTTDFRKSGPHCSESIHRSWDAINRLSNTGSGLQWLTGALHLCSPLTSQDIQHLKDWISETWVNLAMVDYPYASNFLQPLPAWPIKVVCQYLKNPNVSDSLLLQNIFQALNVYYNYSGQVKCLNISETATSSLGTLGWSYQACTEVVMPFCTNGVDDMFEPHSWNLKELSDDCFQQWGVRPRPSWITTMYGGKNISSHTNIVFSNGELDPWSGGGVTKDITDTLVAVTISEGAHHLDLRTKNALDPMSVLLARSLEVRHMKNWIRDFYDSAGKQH

Q: Which IC50 does the source give for Clc1ccc(-c2cc(C3CCN(CCc4ccccc4)CC3)n(-c3ncccn3)n2)cc1 [Example 1, 2-{3-(4-Chlorophenyl)-5-[1-(2-phenylethyl)piperidin-4-yl]-1H-pyrazol-1-yl}pyrimidine] here?
A: 0.051 nM

Q: Which IC50 does the source give for Clc1ccc(-c2cc(C3CCN(CCc4ccccc4)CC3)nn2-c2ccncn2)cc1 [Example 13, 4-{5-(4-chlorophenyl)-3-[1-(2-phenylethyl)piperidin-4-yl]-1 Hyl}pyrimidine] here?
A: 38.4 nM

Q: For CCn1nc(-c2ccc(Cl)cc2)cc1C1CCN(CCc2ccccc2)CC1 [Example 26, 4-[3-(4-chlorophenyl)-1-ethyl-1 H-pyrazol-5-yl]-1-(2-phenylethyl)piperidine], which IC50 is on record?
A: 31.8 nM

Q: For COC(=O)C(CN1CCC(c2cc(-c3ccc(F)cc3)nn2-c2ncccn2)CC1)c1ccccc1 (centres unmarked) [Example 33, Methyl 3-{4-[3-(4-fluorophenyl)-1-(pyrimidin-2-yl)-1 H-pyrazol-5-yl]piperidin-1-pyrazol-5-yl]piperidin-1], which IC50 is on record?
A: 0.035 nM

Q: Which IC50 does the source give for O=C(O)C(CN1CCC(c2cc(-c3ccc(F)cc3)nn2-c2ncccn2)CC1)c1ccccc1 (centres unmarked) [Example 34, 3-{4-[3-(4-fluorophenyl)-1-(pyrimidin-2-yl)-1 H-pyrazol-5-yl]piperidin-1-yl}-2-phenylpropanoic acid] here?
A: 0.51 nM

Q: With OC(CN1CCC(c2cc(-c3ccc(Cl)cc3)nn2-c2ncccn2)CC1)c1ccccc1 (centres unmarked) [Example 36, 2-{4-[3-(4-Chlorophenyl)-1-(pyrimidin-2-yl)-1H-pyrazol-5-yl]piperidin-1-yl}-1-phenylethanol] as the compound, how does the IC50 read?
A: 0.31 nM

Q: Which IC50 does the source give for O=S(=O)(c1ccc(N2CCC(c3cc(-c4ccc(Cl)cc4)nn3-c3ncccn3)CC2)nc1)N1CCOCC1 [Example 48, 4-[(6-{4-[3-(4-chlorophenyl)-1-(pyrimidin-2-yl)-1 H-pyrazol-5-yl]piperidin-1-yl}pyridin-3-yl)sulfonyl]morpholine] here?
A: 80.2 nM

Q: Which IC50 does the source give for CS(=O)(=O)N1CCC(N2CCC(c3cc(-c4ccc(Cl)cc4)nn3-c3ccccc3)CC2)C1 (centres unmarked) [Example 60, 4-[3-(4-chlorophenyl)-1-phenyl-1 H-pyrazol-5-yl]-1-[1-(methylsulfonyl)pyrrolidin-3-yl]piperidine] here?
A: 21.1 nM

Q: For O=C(Cc1ccccc1C(F)(F)F)N1CCC(c2cc(-c3ccc(F)cc3)nn2-c2ncccn2)CC1 [Example 68, 1-{4-[3-(4-fluorophenyl)-1-(pyrimidin-2-yl)-1 H-pyrazol-5-yl]piperidin-1-yl}-2-[2-(trifluoromethyl)phenyl]ethanone], which IC50 is on record?
A: 1.28 nM

Q: With CO[C@@H](CN1CCC(c2nc(-c3ccc(F)cc3)nn2-c2ncccn2)CC1)c1ccccc1 [Example 81, 2-[3-(4-fluorophenyl)-5-{1-[(2 R)-2-methoxy-2-phenylethyl]piperidin-4-yl}-1 H-1,2,4-triazol-1-yl]pyrimidine] as the compound, how does the IC50 read?
A: 2.58 nM

Q: With Fc1ccc(-c2nc(C3C4CN(CCc5ccccc5)CC43)n(-c3ncccn3)n2)cc1 (centres unmarked) [Example 82, 6-[3-(4-Fluorophenyl)-1-(pyrimidin-2-yl)-1H-1,2,4-triazol-5-yl]-3-(2-phenylethyl)-3-azabicyclo[3.1.0]hexane] as the compound, how does the IC50 read?
A: 28.6 nM

Test system: not given
Experiment: not given
Conditions: intracerebroventricular to rats; cited from earlier work

Q: For t-butyl carbamate-prolyl prolinal [BPP], which overnight food intake is on record?
A: suppression of overnight food intake
